Assay results taken from publication PMC9230590, “Pharmacokinetics and Tissue Distribution of Enavogliflozin in Mice and Rats” (Pharmaceutics, 2022).
Values joined by “and” are separate entries in the source; they are usually repeats but may differ in a detail not shown here. Equal values may be shown once. Read-outs that look alike come from different tables or passages of the source.

Key:
[1] = Recovery from urine and feces over 72 h in mice; type: in vivo, ICR mice; conditions: for Recovery, Feces / Recovery, Urine: parent form
Description: Three mice received enavogliflozin (1 mg/kg) intravenously and were returned to metabolic cages with food and water ad libitum and urine and feces samples were collected every 24 h for 72 h. Urine and feces were weighed, and 30 µL aliquots of urine and 50 µL aliquots of 10% feces homogenates were stored at −80 °C until enavogliflozin analysis. Four mice received enavogliflozin (1 mg/kg) by oral gavage and were returned to their metabolic cages to collect urine and feces samples every 24 h for 72 h with the same protocols described above.
(§1) Concentrations of enavogliflozin in plasma and tissue homogenate samples were analyzed using an Agilent 6430 triple quadrupole liquid chromatography-mass spectrometry (LC–MS/MS) system (Agilent, Wilmington, DE, USA) following a previously published method.
Aliquots of plasma or urine (30 µL each) and tissue homogenate (50 µL each) were added to 100 µL of aqueous solution of d4-enavogliflozin (IS, 20 ng/mL), and vigorously mixed with 500 µL MTBE for 15 min. After centrifugation at 16,000× g for 5 min, samples were kept for 1 h, at a temperature of −80 °C to freeze the aqueous layer freeze. The organic upper layer was then transferred to a clean tube and evaporated to dryness under a gentle stream of nitrogen. The dried extract was reconstituted in 150 µL of mobile phase, and a 3 µL aliquot was injected into the LC–MS/MS system. Enavogliflozin was separated on a Synergi Polar RP column (2.0 × 150 mm, 4 µm particle size; Phenomenex, Torrence, CA, USA) using a isocratic mobile phase consisting of water (15%) and methanol (85%) containing 0.1% formic acid at a flow rate of 0.25 mL/min.

[2] = Pharmacokinetics after intravenous injection in rats; type: in vivo, Sprague Dawley (SD) rats; conditions: for AUC∞/D / Co/D: dose normalized; for Co / half-life / MRT / clearance / Vd / AUC(0-inf) / AUC(0-t): plasma; for half-life / MRT / clearance / Vd / AUC(0-inf) / AUC(0-t): rat; for half-life / MRT: incomplete elimination phase; for Vd: read-out: Vd,ss
Description: Twelve rats were randomly divided into three groups (n = 4 per each group) and injected with an enavogliflozin solution at doses of 0.3, 1, and 3 mg/kg. The drug was dissolved in a mixture of 10% DMSO and 90% saline and administered intravenously via the tail vein. Before blood sampling, rats were anesthetized using 2% isoflurane in a vaporizer with an oxygen flow of 0.8 L/min, for 5 min. Blood samples (approximately 100 µL) were collected at 0, 0.05, 0.33, 0.67, 1, 2, 4, 6, and 8 h via the jugular vein under isoflurane anesthesia using a heparin-treated 1 mL syringe (Jung Lim Co. Ltd., Jincheon, Korea). Samples were centrifuged at 12,000× g for 1 min to separate the plasma. An aliquot (30 µL) of each plasma sample was stored at −80 °C until analysis.
as §1
(§2) The data were expressed as the means ± standard deviation for the groups. Pharmacokinetic parameters, such as the area under the plasma concentration–time curve during the period of observation (AUClast), AUC to infinite time (AUC∞), clearance (CL), and volume of distribution at steady-state (Vd,ss), the terminal half-life (t1/2), and mean residence time (MRT) were calculated using non-compartment analysis with WinNonlin software (version 5.1; Pharsights, Cary, NC, USA). The AUC ratios were calculated by dividing the AUClast of enavogliflozin in the tissue samples by the plasma AUClast values of enavogliflozin [15].

[3] = Pharmacokinetics after oral administration in mice; type: in vivo, ICR mice; conditions: for AUC(0-inf) / AUC(0-t) / Cmax / half-life / MRT / Tmax / bioavailability: ICR, mouse, plasma; for bioavailability: po; for AUC∞/D / Cmax/D: dose normalized
Description: Mice were fasted with water ad libitum for at least 12 h before oral administration with enavogliflozin. Fifty-four mice were randomly divided into nine groups (n = 6 per group, Table 1) and were administered an enavogliflozin solution at doses of 0.3, 1, and 3 mg/kg via oral gavage. The drug was dissolved in a mixture of 10% DMSO and 90% saline. Blood samples were collected at 0, 0.083, 0.25, 0.5, 1, 2, 4, 8, and 24 h with the same procedures described above and provided in Table 1.
as §1, §2

OC[C@H]1O[C@@H](c2cc(Cc3ccc(C4CC4)cc3)c(Cl)c3c2CCO3)[C@H](O)[C@@H](O)[C@@H]1O [enavogliflozin, (2S,3R,4R,5S,6R)-2-(7-chloro-6-(4-cyclopropylbenzyl) -2,3-dihydrobenzofuran-4-yl)-6-(hydroxymethyl)tetrahydro-2H-pyran-3,4,5-triol]
Recovery in feces relative to urine ([1]; 1 mg/kg IV): about 6 fold
Recovery, Feces ([1]; 1 mg/kg IV, 0–24 h, 1 mg/kg): 36.3 % of Dose and 36.3 ± 3.6 % of Dose
Recovery, Urine ([1]; 1 mg/kg IV, 0–24 h, 1 mg/kg): 6.3 % of Dose and 6.3 ± 0.8 % of Dose
Recovery, Feces ([1]; 1 mg/kg IV, 0–72 h, 1 mg/kg): 39.3 ± 3.5 % of Dose and 39.3 % of Dose
Recovery, Urine ([1]; 1 mg/kg IV, 0–72 h, 1 mg/kg): 6.6 ± 0.7 % of Dose and 6.6 % of Dose
Recovery, Feces ([1]; 1 mg/kg IV, 24–48 h): 2.7 ± 1.3 % of Dose
Recovery, Urine ([1]; 1 mg/kg IV, 24–48 h): 0.1 ± 0.0 % of Dose
Recovery, Feces ([1]; 1 mg/kg IV, 48–72 h): 0.4 ± 0.1 % of Dose
Recovery, Feces ([1]; 1 mg/kg PO, 0–24 h): 50.6 ± 11.1 % of Dose
Recovery, Urine ([1]; 1 mg/kg PO, 0–24 h): 6.6 ± 0.6 % of Dose
Recovery, Urine ([1]; 1 mg/kg PO, 0–72 h): 6.8 ± 0.6 % of Dose
Recovery, Feces ([1]; 1 mg/kg PO, 0–72 h, 1 mg/kg): 51.4 % of Dose and 51.4 ± 11.5 % of Dose
Recovery, Feces ([1]; 1 mg/kg PO, 24–48 h): 0.72 ± 0.4 % of Dose
Recovery, Urine ([1]; 1 mg/kg PO, 24–48 h): 0.1 ± 0.0 % of Dose
Recovery, Feces ([1]; 1 mg/kg PO, 48–72 h): 0.2 ± 0.1 % of Dose
dose excreted ([1]; ICR, mouse, urine and feces, 1 mg/kg IV, 72 h, read-out: total recovery (feces + urine)): ~46%
AUC∞/D ([2]; IV 0.3 mg/kg): 2831.6 ± 359.0
Co/D ([2]; IV 0.3 mg/kg): 4231.2 ± 1720.0
Co ([2]; IV 0.3 mg/kg): 1269.4 ± 516.0 ng/mL
AUC∞/D ([2]; IV 1 mg/kg): 2798.6 ± 551.4
Co/D ([2]; IV 1 mg/kg): 3956.4 ± 1028.2
Co ([2]; IV 1 mg/kg): 3956.4 ± 1028.2 ng/mL
AUC∞/D ([2]; IV 3 mg/kg): 2462.4 ± 429.3
Co/D ([2]; IV 3 mg/kg): 3419.4 ± 1364.8
Co ([2]; IV 3 mg/kg): 10,258.1 ± 4094.5 ng/mL
plasma concentrations at 24 h ([2]; IV 0.3, 1, and 3 mg/kg groups): below the detection limit
half-life ([2]; Sprague Dawley, IV 0.3 mg/kg): 2.6 ± 0.4 h
half-life ([2]; Sprague Dawley, IV 1 mg/kg): 2.9 ± 0.4 h
half-life ([2]; Sprague Dawley, IV 3 mg/kg): 4.3 ± 0.6 h
MRT ([2]; Sprague Dawley, IV 0.3 mg/kg): 2.5 ± 0.4 h
clearance ([2]; Sprague Dawley, IV 0.3 mg/kg, read-out: CL): 0.36 ± 0.048 L/h/kg
Vd ([2]; Sprague Dawley, IV 0.3 mg/kg): 0.9 ± 0.2 L/kg
MRT ([2]; Sprague Dawley, IV 1 mg/kg): 2.9 ± 0.4 h
clearance ([2]; Sprague Dawley, IV 1 mg/kg, read-out: CL): 0.372 ± 0.084 L/h/kg
Vd ([2]; Sprague Dawley, IV 1 mg/kg): 1.1 ± 0.1 L/kg
MRT ([2]; Sprague Dawley, IV 3 mg/kg): 5.1 ± 1.1 h
clearance ([2]; Sprague Dawley, IV 3 mg/kg, read-out: CL): 0.414 ± 0.072 L/h/kg
Vd ([2]; Sprague Dawley, IV 3 mg/kg): 2.1 ± 0.4 L/kg
AUC(0-inf) ([2]; Sprague-Dawley, IV 0.3 mg/kg): 0.85 ± 0.108 µg·h/mL
AUC(0-t) ([2]; Sprague-Dawley, IV 0.3 mg/kg): 0.784 ± 0.0944 µg·h/mL
AUC(0-inf) ([2]; Sprague-Dawley, IV 1 mg/kg): 2.8 ± 0.551 µg·h/mL
AUC(0-t) ([2]; Sprague-Dawley, IV 1 mg/kg): 2.51 ± 0.447 µg·h/mL
AUC(0-inf) ([2]; Sprague-Dawley, IV 3 mg/kg): 7.39 ± 1.29 µg·h/mL
AUC(0-t) ([2]; Sprague-Dawley, IV 3 mg/kg): 5.61 ± 0.751 µg·h/mL
clearance ([2]; Sprague-Dawley, IV 0.3–3 mg/kg, all doses together, read-out: Systemic clearance): 0.381 ± 0.0684 L/h/kg
AUC(0-inf) ([3]; PO 0.3 mg/kg): 0.498 ± 0.079 µg·h/mL
AUC(0-t) ([3]; PO 0.3 mg/kg): 0.488 ± 0.0779 µg·h/mL
Cmax ([3]; PO 0.3 mg/kg): 0.0721 ± 0.0105 µg/mL
half-life ([3]; PO 0.3 mg/kg): 4.3 ± 0.5 h
AUC(0-inf) ([3]; PO 1 mg/kg): 1.37 ± 0.27 µg·h/mL
AUC(0-t) ([3]; PO 1 mg/kg): 1.36 ± 0.27 µg·h/mL
Cmax ([3]; PO 1 mg/kg): 0.216 ± 0.0941 µg/mL
half-life ([3]; PO 1 mg/kg): 3.5 ± 0.2 h
AUC(0-inf) ([3]; PO 3 mg/kg): 4.76 ± 0.543 µg·h/mL
AUC(0-t) ([3]; PO 3 mg/kg): 4.74 ± 0.532 µg·h/mL
Cmax ([3]; PO 3 mg/kg): 0.943 ± 0.231 µg/mL
half-life ([3]; PO 3 mg/kg): 3.3 ± 0.4 h
MRT ([3]; PO 0.3 mg/kg): 5.7 ± 0.5 h
Tmax ([3]; PO 0.3 mg/kg): 1.5 ± 0.5 h
MRT ([3]; PO 1 mg/kg): 5.7 ± 0.5 h
MRT ([3]; PO 3 mg/kg): 5.3 ± 0.5 h
Tmax ([3]; PO 3 mg/kg): 0.9 ± 0.3 h
bioavailability ([3]; 0.3 mg/kg, PO 0.3 mg/kg, AUC∞,PO / AUC∞,IV, read-out: BA (absolute bioavailability)): 97.2%
bioavailability ([3]; 1 mg/kg, PO 1 mg/kg, AUC∞,PO / AUC∞,IV, read-out: BA (absolute bioavailability)): 84.5%
bioavailability ([3]; 3 mg/kg, PO 3 mg/kg, AUC∞,PO / AUC∞,IV, read-out: BA (absolute bioavailability)): 93.7%
bioavailability ([3]; 3 mg/kg, range over doses 0.3, 1 and 3 mg/kg, read-out: Oral bioavailability): 84.5 to 97.2%
AUC∞/D ([3]; PO 0.3 mg/kg): 1658.9 ± 263.5
Cmax/D ([3]; PO 0.3 mg/kg): 240.5 ± 35.0
AUC∞/D ([3]; PO 1 mg/kg): 1373.8 ± 269.6
Cmax/D ([3]; PO 1 mg/kg): 216.1 ± 94.1
AUC∞/D ([3]; PO 3 mg/kg): 1587.0 ± 181.1
Cmax/D ([3]; PO 3 mg/kg): 314.3 ± 76.9
